Source: ChEMBL document CHEMBL4308841, “Synthesis, in vitro antiproliferative activity, and kinase inhibitory effects of pyrazole-containing diarylureas and diarylamides” (Eur J Med Chem, 2018)

Columns and labels:
CCRF-CEM [1] = assay: Growth inhibition of human CCRF-CEM cells assessed as cell growth at 1 uM incubated for 48 hrs by sulforhodamine B assay relative to control; format: functional; conditions: read-out: Activity
HT-29 = assay: Growth inhibition of human HT-29 cells assessed as cell growth at 0.01 uM incubated for 48 hrs by sulforhodamine B assay relative to control; format: functional; conditions: HT-29, 48 h, read-out: Activity
SK-MEL-5 = assay: Growth inhibition of human SK-MEL-5 cells assessed as cell growth at 0.1 uM incubated for 48 hrs by sulforhodamine B assay relative to control; format: functional; conditions: SK-MEL-5, 48 h, read-out: Activity
NCI-H23 = assay: Growth inhibition of human NCI-H23 cells assessed as cell growth at 1 uM incubated for 48 hrs by sulforhodamine B assay relative to control; format: functional; conditions: NCI-H23, 48 h, read-out: Activity
Malme-3M = assay: Growth inhibition of human MALME-3M cells assessed as cell growth at 1 uM incubated for 48 hrs by sulforhodamine B assay relative to control; format: functional; conditions: read-out: Activity
SW-620 [2] = assay: Growth inhibition of human SW620 cells assessed as cell growth at 0.1 uM incubated for 48 hrs by sulforhodamine B assay relative to control; format: functional; conditions: SW-620, 48 h, read-out: Activity
DU-145 [3] = assay: Growth inhibition of human DU145 cells assessed as cell growth at 0.1 uM incubated for 48 hrs by sulforhodamine B assay relative to control; format: functional; conditions: DU-145, 48 h, read-out: Activity
HL-60(TB) = assay: Growth inhibition of human HL-60(TB) cells assessed as cell growth at 0.1 uM incubated for 48 hrs by sulforhodamine B assay relative to control; format: functional; conditions: HL-60, 48 h, read-out: Activity
M14 = assay: Growth inhibition of human M14 cells assessed as cell growth at 1 uM incubated for 48 hrs by sulforhodamine B assay relative to control; format: functional; conditions: M14, 48 h, read-out: Activity
NCI/ADR-RES = assay: Growth inhibition of human NCI/ADR-RES cells assessed as cell growth at 0.01 uM incubated for 48 hrs by sulforhodamine B assay relative to control; format: functional; conditions: read-out: Activity
HCT-15 = assay: Growth inhibition of human HCT15 cells assessed as cell growth at 0.01 uM incubated for 48 hrs by sulforhodamine B assay relative to control; format: functional; conditions: HCT-15, 48 h, read-out: Activity
HOP-62 [4] = assay: Growth inhibition of human HOP62 cells assessed as cell growth at 0.1 uM incubated for 48 hrs by sulforhodamine B assay relative to control; format: functional; conditions: HOP-62, 48 h, read-out: Activity
NCI-H522 [5] = assay: Growth inhibition of human NCI-H522 cells assessed as cell growth at 100 uM incubated for 48 hrs by sulforhodamine B assay relative to control; format: functional; conditions: NCI-H522, 48 h, read-out: Activity
OVCAR-5 [6] = assay: Growth inhibition of human OVCAR5 cells assessed as cell growth at 0.1 uM incubated for 48 hrs by sulforhodamine B assay relative to control; format: functional; conditions: OVCAR-5, 48 h, read-out: Activity
OVCAR-4 = assay: Growth inhibition of human OVCAR4 cells incubated for 48 hrs by sulforhodamine B assay; format: functional, cell-based; conditions: OVCAR-4, 48 h
SK-OV-3 = assay: Growth inhibition of human SKOV3 cells incubated for 48 hrs by sulforhodamine B assay; format: functional, cell-based; conditions: SK-OV-3, 48 h
TK-10 = assay: Growth inhibition of human TK10 cells assessed as cell growth at 10 uM incubated for 48 hrs by sulforhodamine B assay relative to control; format: functional; conditions: TK-10, 48 h, read-out: Activity
SF-268 = assay: Growth inhibition of human SF268 cells assessed as cell growth at 0.1 uM incubated for 48 hrs by sulforhodamine B assay relative to control; format: functional; conditions: SF-268, 48 h, read-out: Activity
SW-620 [7] = assay: Growth inhibition of human SW620 cells assessed as cell growth at 1 uM incubated for 48 hrs by sulforhodamine B assay relative to control; format: functional; conditions: SW-620, 48 h, read-out: Activity
SK-MEL-2 = assay: Growth inhibition of human SK-MEL-2 cells assessed as cell growth at 100 uM incubated for 48 hrs by sulforhodamine B assay relative to control; format: functional; conditions: SK-MEL-2, 48 h, read-out: Activity
DU-145 [8] = assay: Growth inhibition of human DU145 cells assessed as cell growth at 100 uM incubated for 48 hrs by sulforhodamine B assay relative to control; format: functional; conditions: DU-145, 48 h, read-out: Activity
HCC 2998 = assay: Growth inhibition of human HCC2998 cells assessed as cell growth at 0.01 uM incubated for 48 hrs by sulforhodamine B assay relative to control; format: functional; conditions: HCC 2998, 48 h, read-out: Activity
SW-620 [9] = assay: Growth inhibition of human SW620 cells incubated for 48 hrs by sulforhodamine B assay; format: functional, cell-based; conditions: SW-620, 48 h
CCRF-CEM [10] = assay: Growth inhibition of human CCRF-CEM cells assessed as cell growth at 0.1 uM incubated for 48 hrs by sulforhodamine B assay relative to control; format: functional; conditions: read-out: Activity
RXF 393 = assay: Growth inhibition of human RXF393 cells assessed as cell growth at 100 uM incubated for 48 hrs by sulforhodamine B assay relative to control; format: functional; conditions: RXF 393, 48 h, read-out: Activity
KM12 = assay: Growth inhibition of human KM12 cells assessed as cell growth at 0.01 uM incubated for 48 hrs by sulforhodamine B assay relative to control; format: functional; conditions: KM12, 48 h, read-out: Activity
LOX IMVI = assay: Growth inhibition of human LOXIMVI cells assessed as cell growth at 100 uM incubated for 48 hrs by sulforhodamine B assay relative to control; format: functional; conditions: read-out: Activity
NCI-H522 [11] = assay: Growth inhibition of human NCI-H522 cells assessed as cell growth at 0.01 uM incubated for 48 hrs by sulforhodamine B assay relative to control; format: functional; conditions: NCI-H522, 48 h, read-out: Activity
OVCAR-5 [12] = assay: Growth inhibition of human OVCAR5 cells assessed as cell growth at 1 uM incubated for 48 hrs by sulforhodamine B assay relative to control; format: functional; conditions: OVCAR-5, 48 h, read-out: Activity
SF-539 = assay: Growth inhibition of human SF539 cells assessed as cell growth at 1 uM incubated for 48 hrs by sulforhodamine B assay relative to control; format: functional; conditions: SF-539, 48 h, read-out: Activity
OVCAR-8 = assay: Growth inhibition of human OVCAR8 cells assessed as cell growth at 1 uM incubated for 48 hrs by sulforhodamine B assay relative to control; format: functional; conditions: OVCAR-8, 48 h, read-out: Activity
HOP-62 [13] = assay: Growth inhibition of human HOP62 cells assessed as cell growth at 100 uM incubated for 48 hrs by sulforhodamine B assay relative to control; format: functional; conditions: HOP-62, 48 h, read-out: Activity
[14] = read-out: LC50 (the source's name)
[15] = read-out: pLC50 (the source's name) (converted)

With `COc1cc(Cl)cc(-c2nn(-c3cccc(NC(=O)Nc4ccc(Cl)c(Cl)c4)c3)cc2-c2ccncc2)c1` the growth at 1 µM (CCRF-CEM [1]) was 82%, the growth at 0.01 µM (HT-29) was 103% and the growth at 0.1 µM (SK-MEL-5) was 96%. For the same molecule, the growth at 1 µM (NCI-H23) was 89%, the growth at 1 µM (Malme-3M) was 77% and the growth at 0.1 µM (SW-620 [2]) was 97%. It also gave a growth at 0.1 µM (DU-145 [3]) of 97%, a growth at 0.1 µM (HL-60(TB)) of 93% and a growth at 1 µM (M14) of 82%. For the same molecule, the growth at 0.01 µM (NCI/ADR-RES) was 97%, the growth at 0.01 µM (HCT-15) was 93% and the growth at 0.1 µM (HOP-62 [4]) was 94%. The growth at 100 µM (NCI-H522 [5]) was -15%, the growth at 0.1 µM (OVCAR-5 [6]) was 59% and the GI50 (OVCAR-4; read-out: GI50) was 2 µM. For the same molecule, the CC50 (OVCAR-4; [14]) was > 100 µM, the TGI (OVCAR-4; read-out: TGI) was 53.8 µM and the GI50 (OVCAR-4; read-out: pGI50 (converted)) was 2.82 µM. The CC50 (OVCAR-4; [15]) was > 100 µM, the TGI (OVCAR-4; read-out: pTGI (converted)) was 53.7 µM and the GI50 (SK-OV-3; read-out: GI50) was 3.5 µM. For the same molecule, the CC50 (SK-OV-3; [14]) was > 100 µM, the TGI (SK-OV-3; read-out: TGI) was 57 µM and the GI50 (SK-OV-3; read-out: pGI50 (converted)) was 3.63 µM. The CC50 (SK-OV-3; [15]) was > 100 µM, the TGI (SK-OV-3; read-out: pTGI (converted)) was 87.1 µM and the growth at 10 µM (TK-10) was 19.8%. The growth at 0.1 µM (SF-268) was 95%, the growth at 1 µM (SW-620 [7]) was 93% and the growth at 100 µM (SK-MEL-2) was -70%. The growth at 100 µM (DU-145 [8]) was 13%, the growth at 0.01 µM (HCC 2998) was 93% and the GI50 (SW-620 [9]; read-out: GI50) was 3.43 µM. The LC50 (SW-620 [9]; read-out: LC50) was > 100 µM, the TGI (SW-620 [9]; read-out: TGI) was > 100 µM and the GI50 (SW-620 [9]; read-out: pGI50 (converted)) was 3.39 µM. For the same molecule, the LC50 (SW-620 [9]; read-out: pLC50 (converted)) was > 100 µM, the TGI (SW-620 [9]; read-out: pTGI (converted)) was > 100 µM and the growth at 0.1 µM (CCRF-CEM [10]) was 97%. The growth at 100 µM (RXF 393) was -43%, the growth at 0.01 µM (KM12) was 96% and the growth at 100 µM (LOX IMVI) was -30%. For the same molecule, the growth at 0.01 µM (NCI-H522 [11]) was 95%, the growth at 1 µM (OVCAR-5 [12]) was 87% and the growth at 1 µM (SF-539) was 82%. It also gave a growth at 1 µM (OVCAR-8) of 78% and a growth at 100 µM (HOP-62 [13]) of 12%.

For `COc1cc(Cl)cc(-c2nn(-c3cccc(NC(=O)c4ccc(N5CCOCC5)c(C(F)(F)F)c4)c3)cc2-c2ccncc2)c1`, the growth at 1 µM (CCRF-CEM [1]) was 56%, the growth at 0.01 µM (HT-29) was 100% and the growth at 0.1 µM (SK-MEL-5) was 99%. For the same molecule, the growth at 1 µM (NCI-H23) was 96%, the growth at 1 µM (Malme-3M) was 58% and the growth at 0.1 µM (SW-620 [2]) was 101%. For the same molecule, the growth at 0.1 µM (DU-145 [3]) was 97%, the growth at 0.1 µM (HL-60(TB)) was 91% and the growth at 1 µM (M14) was 58%. The growth at 0.01 µM (NCI/ADR-RES) was 96%, the growth at 0.01 µM (HCT-15) was 94% and the growth at 0.1 µM (HOP-62 [4]) was 105%. For the same molecule, the growth at 100 µM (NCI-H522 [5]) was 31%, the growth at 0.1 µM (OVCAR-5 [6]) was 78% and the GI50 (OVCAR-4; read-out: GI50) was 3.97 µM. The CC50 (OVCAR-4; [14]) was > 100 µM, the TGI (OVCAR-4; read-out: TGI) was > 100 µM and the GI50 (OVCAR-4; read-out: pGI50 (converted)) was 39.8 µM. The CC50 (OVCAR-4; [15]) was > 100 µM, the TGI (OVCAR-4; read-out: pTGI (converted)) was > 100 µM and the GI50 (SK-OV-3; read-out: GI50) was > 100 µM. For the same molecule, the CC50 (SK-OV-3; [14]) was > 100 µM, the TGI (SK-OV-3; read-out: TGI) was > 100 µM and the GI50 (SK-OV-3; read-out: pGI50 (converted)) was > 100 µM. For the same molecule, the CC50 (SK-OV-3; [15]) was > 100 µM, the TGI (SK-OV-3; read-out: pTGI (converted)) was > 100 µM and the growth at 10 µM (TK-10) was 90.6%. The growth at 0.1 µM (SF-268) was 94%, the growth at 1 µM (SW-620 [7]) was 103% and the growth at 100 µM (SK-MEL-2) was 15%. For the same molecule, the growth at 100 µM (DU-145 [8]) was 54%, the growth at 0.01 µM (HCC 2998) was 95% and the GI50 (SW-620 [9]; read-out: GI50) was 2.96 µM. For the same molecule, the LC50 (SW-620 [9]; read-out: LC50) was > 100 µM, the TGI (SW-620 [9]; read-out: TGI) was > 100 µM and the GI50 (SW-620 [9]; read-out: pGI50 (converted)) was 29.5 µM. For the same molecule, the LC50 (SW-620 [9]; read-out: pLC50 (converted)) was > 100 µM, the TGI (SW-620 [9]; read-out: pTGI (converted)) was > 100 µM and the growth at 0.1 µM (CCRF-CEM [10]) was 101%. For the same molecule, the growth at 100 µM (RXF 393) was -10%, the growth at 0.01 µM (KM12) was 96% and the growth at 100 µM (LOX IMVI) was 25%. The growth at 0.01 µM (NCI-H522 [11]) was 94%, the growth at 1 µM (OVCAR-5 [12]) was 75% and the growth at 1 µM (SF-539) was 57%. For the same molecule, the growth at 1 µM (OVCAR-8) was 56% and the growth at 100 µM (HOP-62 [13]) was 45%.
